Earlier results as cited in patent US20260283918A1, “AZELAIC ACID/BETAINE/PANTHENOL SELF-RECOGNITION DES SYSTEM AND PREPARATION METHOD” (Wuxi Zhiyan Biotechnology Co., LTD, priority 2023, published 2026).

Details: water and oil

Structure (SMILES): O=C(O)CCCCCCCC(=O)O [azelaic acid]
- solubility of azelaic acid: poor solubility in both water and oil
